Source: patent publication US9988626B2, “Neurocalcin delta inhibitors and therapeutic and non-therapeutic uses thereof” (Universität Zu Köln, priority 2013, dated 2018)

System: zebrafish embryos
Experiment: Whole cell current clamp recordings of endplate potentials in zebrafish ventral fast muscle cells
Format: in vivo
Description: Experiments were conducted with zebrafish embryos (wildtype (wt) contras, smn-, ncald-, and smn/ncald-morphants) 72 hours post fertilization. The animals were anesthetized with 0.02% tricaine (in saline; E10521, Sigma-Aldrich, Taufkirchen, Germany) for 1-2 min and then rinsed with saline. The saline contained (in mM): 134 NaCl, 2.9 KCl, 2.1 CaCl2, 1.2 MgCl2, 10 HEPES, 10 Glucose adjusted to pH 7.8 with NaOH. The fish were decapitated and pinned under saline in a Sylgard-coated (SYLG184, Dow Coming, Midland, Mich.) recording chamber (˜3 ml volume). The skin was peeled off using a sharp tungsten pin and fine forceps and the preparation was incubated in 3 M formamide (in saline; 6749.1, Carl Roth GmbH, Karlsruhe) for 2 min to prevent muscle contractions. After rinsing the preparation, the superficial layer of ventral slow muscle cells was removed by gently scratching with a fine tungsten pin to expose deeper lying fast skeletal muscle cells. Remaining superficial slow muscles in the segments of interest were removed with a low resistance pipette (˜2 MΩ). […] Muscle cells were visualized with a fixed-stage upright microscope (Zeiss Axio Examiner, Carl Zeiss Microscopy GmbH, Jena, Germany), using a 40× water immersion objective (W Plan-Apochromat, 40×; 1.0 numerical aperture; 2.5 mm working distance; Zeiss) with infrared-differential interference contrast (Dodt and Zieglgansberger 1990) and fluorescence optics. […]
Whole-cell patch clamp recordings in current-clamp mode were performed with an EPC10 patch-clamp amplifier (HEKA-Elektronik, Lambrecht, Germany) that was controlled by the program Patchmaster (version 2.53, HEKA-Elektronik) running under Windows. […] The calculated liquid junction potential between intracellular and extracellular solution of 5.8 mV (calculated with Patcher's-Power-Tools plug-in from http://www.mpibpc.gwdg.de/abteilungen/140/software/index.html for Igor Pro 6 [Wavemetrics, Portland, Oreg., USA]) was also compensated. Whole-cell capacitance was determined by using the capacitance compensation (C-slow) of the EPC10. […]

“smn MO: previously published morpholino knocking down zebrafish smn, CGACATCTTCTGCACCATTGGC (all phosphorodiamidate morpholino (PMO))” was tested, and the “Frequency of large NMDA-induced EPP / action potentials” value (72 hpf zebrafish, ventral fast muscle cells, NMDA (100 μM) stimulation) was 0.37±0.17 Hz, the “Spontaneous mEPP frequency at rest” value (72 hpf zebrafish, ventral fast muscle cells, without stimulation) was 0.32±0.16 Hz and the “Resting and NMDA induced EPP activity” value (zebrafish morphants compared to wild type) was “significant reduction of the mEPP and the EPP rate”.
